Measurements from ChEMBL document CHEMBL1201862, “PubChem BioAssay data set” (2004).
Activity calls are given as the source filed them.

Experiments:
[1] = molecular target: T1, Apoptotic protease-activating factor 1 (Homo sapiens, UniProt O14727); assay type: functional
T1 sequence (O14727 whole entry): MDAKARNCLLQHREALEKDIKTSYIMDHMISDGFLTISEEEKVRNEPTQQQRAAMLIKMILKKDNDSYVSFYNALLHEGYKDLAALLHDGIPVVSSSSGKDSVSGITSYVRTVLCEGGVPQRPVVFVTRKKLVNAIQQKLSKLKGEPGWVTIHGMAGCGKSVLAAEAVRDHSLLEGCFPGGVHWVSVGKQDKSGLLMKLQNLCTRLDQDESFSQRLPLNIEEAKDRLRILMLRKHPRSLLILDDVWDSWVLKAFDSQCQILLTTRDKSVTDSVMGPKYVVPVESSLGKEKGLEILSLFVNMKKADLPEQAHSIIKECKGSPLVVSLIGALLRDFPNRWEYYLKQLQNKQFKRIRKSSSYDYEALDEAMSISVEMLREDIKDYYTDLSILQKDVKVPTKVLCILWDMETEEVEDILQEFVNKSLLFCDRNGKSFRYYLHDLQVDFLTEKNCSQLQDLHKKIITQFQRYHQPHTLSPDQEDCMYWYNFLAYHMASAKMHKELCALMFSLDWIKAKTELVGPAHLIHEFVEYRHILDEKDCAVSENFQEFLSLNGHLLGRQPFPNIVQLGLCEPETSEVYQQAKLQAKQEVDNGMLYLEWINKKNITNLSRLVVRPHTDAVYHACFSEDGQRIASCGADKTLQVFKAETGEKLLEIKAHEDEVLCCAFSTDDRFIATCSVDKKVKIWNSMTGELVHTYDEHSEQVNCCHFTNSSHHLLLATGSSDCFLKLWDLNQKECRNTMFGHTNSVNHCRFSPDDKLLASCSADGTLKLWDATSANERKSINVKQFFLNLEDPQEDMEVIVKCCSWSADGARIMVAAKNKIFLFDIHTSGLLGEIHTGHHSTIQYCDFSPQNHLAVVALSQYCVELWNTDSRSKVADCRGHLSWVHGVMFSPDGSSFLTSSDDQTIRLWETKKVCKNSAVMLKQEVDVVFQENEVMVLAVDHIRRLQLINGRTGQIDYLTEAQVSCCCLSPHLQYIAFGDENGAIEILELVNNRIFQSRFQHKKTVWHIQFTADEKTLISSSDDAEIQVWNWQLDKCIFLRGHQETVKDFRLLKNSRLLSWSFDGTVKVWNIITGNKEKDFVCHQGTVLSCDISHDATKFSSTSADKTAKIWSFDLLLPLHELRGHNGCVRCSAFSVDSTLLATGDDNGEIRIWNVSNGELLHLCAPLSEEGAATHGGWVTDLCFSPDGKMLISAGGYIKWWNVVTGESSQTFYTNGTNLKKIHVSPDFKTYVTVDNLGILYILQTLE

[2] = NIH:OVCAR-3 ovarian cancer cell cytotoxicity, dose response, PAX8 inhibitor project, plate reader, dry powder samples (AID 743044); assay type: functional, cell-based
Paired box protein Pax-8 = Paired box protein Pax-8 (Homo sapiens, UniProt Q06710); experiment: inhibitors of PAX8-driven TPO luciferase reporter, dose response, RMG-I cells, cherry-pick (AID 687027); assay type: functional, cell-based;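 note: luciferase reporter driven by Pax8 target thyroperoxidase promoter measured by SteadyGlo luminescence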
[3] = P. falciparum Dd2 growth inhibitors, dose response, SYBR Green, cherry-picked samples (AID 1159567); assay type: functional, cell-based
[4] = HepG2 cell cytotoxicity, dose response, cytotoxicity control, cherry-picked samples (AID 1159577); assay type: functional, cell-based
[5] = Shn3 3'UTR reporter inhibitors, dose response, cell-based, Clone20 osteoblasts, firefly luciferase, cherry-picked (AID 624132); assay type: functional;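 note: firefly luciferase luminescence from reporter carrying the Shn3 3'UTR in osteoblasts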
Streptococcus = experiment: Group A Streptococcus viability loss, dose response, counter-screen for streptokinase expression inhibitor project, luminescence, BacTiterGlo (AID 1915); assay type: functional, organism-based;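 note: potency for reduction of bacterial viability or growth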
BJ [6] = experiment: cytotoxicity toward BJ-TERT-LT-ST fibroblasts, dose response, cell-based, RAS-independent, luminescence (AID 1935); assay type: functional; details: Homo sapiens;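 note: BJ fibroblasts immortalized with TERT plus LT and ST oncogenes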
BJ [7] = experiment: cells; assay type: functional, cell-based; details: Homo sapiens
INS1 = experiment: beta cell apoptosis inhibitors, cytokine rescue, dose response, luminescence, retest (AID 449756); assay type: functional, cell-based; details: Rattus norvegicus;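 note: cell death triggered by IL-1 beta plus TNF-alpha plus IFN-gamma mixture; protective hits raise ATP signal compared with cytokine alone wells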
[8] = HepG2 cell cytotoxicity, dose response, cytotoxicity control for Shn3 inhibitor project, CellTiter-Glo, cherry-picked (AID 624134); assay type: functional, cell-based
BJ [9] = experiment: cytotoxicity toward BJ-TERT fibroblasts, dose response, cell-based, RAS-independent, luminescence (AID 1933); assay type: functional; details: Homo sapiens
[10] = control 3'UTR Renilla luciferase suppression, dose response, counter-screen for Shn3 inhibitor project, cell-based, Clone20-Shn3RL, cherry-picked (AID 624133); assay type: functional
[11] = inhibitors of firefly luciferase expression or activity, dose response, H4 neuroglioma cells, luminescence (AID 1990); assay type: functional, cell-based
[12] = Luminescence Cell-Based Dose Response HTS to Identify Inhibitors of 5'UTR Stem-Loop Driven Prion Protein mRNA Translation in H4 Neuroglioblastoma Cells. [Related pubchem assays: 1827 (Project Summary), 1813 (Primary HTS)]; assay type: functional
[13] = tested on: Streptococcus sp. 'group A'; experiment: growth inhibition of control SK(-) GAS strain, dose response, counter-screen for streptokinase expression inhibitor project, luminescence, kanamycin, BacTiterGlo, confirmation (AID 1900); assay type: functional, organism-based
[14] = cytotoxicity toward DRD oncogenic fibroblasts, dose response, cell-based, non-viral oncogenic, luminescence (AID 1934); assay type: functional; details: Homo sapiens
[15] = inhibitors of SNCA 5'UTR-driven reporter translation, confirmation, H4 neuroglioma cells, luminescence (AID 1988); assay type: functional, cell-based
[16] = microbe, parasite or virus in culture; assay type: functional; details: Mycobacterium tuberculosis
BJ [17] = experiment: cytotoxicity toward Ras-transformed BJeLR fibroblasts, dose response, cell-based, alamar blue fluorescence, cherrypicked samples (AID 2631); assay type: functional; details: Homo sapiens;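 note: confirmatory dose-response assay in RAS-dependent BJ fibroblasts engineered with TERT, LT and ST, with cytotoxicity read by fluorescence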

Sequence of Paired box protein Pax-8 (Q06710 whole entry): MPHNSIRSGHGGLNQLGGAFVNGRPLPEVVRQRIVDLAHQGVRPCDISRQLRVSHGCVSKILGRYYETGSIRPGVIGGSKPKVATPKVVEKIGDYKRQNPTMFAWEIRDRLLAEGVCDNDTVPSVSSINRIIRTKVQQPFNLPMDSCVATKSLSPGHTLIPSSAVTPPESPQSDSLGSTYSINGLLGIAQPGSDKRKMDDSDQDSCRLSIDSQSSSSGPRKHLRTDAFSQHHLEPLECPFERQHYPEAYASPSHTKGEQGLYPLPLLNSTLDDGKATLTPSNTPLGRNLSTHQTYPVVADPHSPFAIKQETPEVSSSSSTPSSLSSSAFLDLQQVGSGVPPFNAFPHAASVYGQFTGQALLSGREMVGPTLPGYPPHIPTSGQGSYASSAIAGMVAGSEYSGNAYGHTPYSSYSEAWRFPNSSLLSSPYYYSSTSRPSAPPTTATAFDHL

For `CCOc1ccc(NC(=O)CN(C)C(=O)c2ccc(COc3ccccc3)cc2)cc1OCC`, which IC50 [1] is on record?
The IC50 was > 100000 nM (inactive).

What does the source list for `N#Cc1ccc(-c2ccc([C@@H]3[C@@H]4CN(C(=O)c5ccc6c(c5)OCO6)C[C@H]3N4)cc2)cc1`?
AC50 [2]: 29100 nM (active); AC50 (Paired box protein Pax-8): 8390 nM (active)

Which AC50 [2] does the source give for `O=C(Cc1cccnc1)N1CCCCN2[C@H](C1)[C@H](c1ccc(C#CC3CCCC3)cc1)[C@@H]2CO` here?
The AC50 was 9020 nM (active).

And the AC50 (Paired box protein Pax-8)?
The AC50 was 5070 nM (active).

Which results are given for `CC(C)N(C[C@H]1N[C@H](CO)[C@@H]1c1ccc(C2=CCCCC2)cc1)C(=O)CN(C)C`?
AC50 [3]: 1340 nM (active); AC50 [4]: 10800 nM (active)

Which AC50 [3] does the source give for `Cc1cccc(-c2ccc([C@H]3[C@@H](CO)N4CCCCN(CCC(F)(F)F)C[C@H]34)cc2)c1` here?
Its AC50 is 1010 nM (active).

What about the AC50 [4] of the same compound?
Its AC50 is 8620 nM (active).

What does the source list for `O=C(c1ccc2c(c1)OCO2)N1C[C@@H]2N[C@H](C1)[C@@H]2c1ccc(/C=C/c2ccccc2)cc1`?
AC50 [3]: 4030 nM (active); AC50 [4]: 11500 nM (active)

For `O=[N+]([O-])c1ccc(O)c(-c2cc(C(F)(F)F)nc(-c3ccccc3)n2)c1`, which AC50 [5] is on record?
The AC50 was 2730 nM (active).

What about the EC50 (Streptococcus) of the same compound?
Its EC50 is 254 nM (active).

What about the EC50 (BJ [6]) of the same compound?
Its EC50 is 2140 nM (inconclusive).

What about the EC50 (BJ [7]) of the same compound?
Its EC50 is 2950 nM (active).

And the AC50 (INS1)?
Its AC50 is 1050 nM (active).

What about the AC50 [8] of the same compound?
Its AC50 is 1610 nM (active).

And the EC50 (BJ [9])?
Its EC50 is 2440 nM (active).

And the AC50 [10]?
The AC50 was 906 nM (active).

What about the EC50 [11] of the same compound?
The EC50 was 9180 nM (active).

What about the EC50 [12] of the same compound?
The EC50 was 9130 nM (active).

And the EC50 [13]?
The EC50 was 104 nM (active).

What about the EC50 [14] of the same compound?
The EC50 was 2960 nM (active).

And the EC50 [15]?
Its EC50 is 8040 nM (inconclusive).

What about the AC50 (Paired box protein Pax-8) of the same compound?
The AC50 was 811 nM (active).

And the CC50 [16]?
The CC50 was 546 nM (active).

And the EC50 (BJ [17])?
Its EC50 is 571 nM (inconclusive).
